# Patent US20130072430A1, “METHODS FOR TREATMENT OR PROPHYLAXIS OF KIDNEY OR LIVER DYSFUNCTION” (NPS PHARMACEUTICALS, INC., priority 2010, published 2013)
# System: Human patients with short bowel syndrome
# Experiment: Example 3: change from baseline to week 24 in liver enzyme levels (ALP, ALT, AST, total bilirubin, GGTP) by responder status (reduced parenteral nutrition)
# Type: in vivo
# Conditions: 0.05 mg/kg/day
# Method: In this example the data presented in Example 2 are analyzed to evaluate whether the beneficial effects of teduglutide on liver function tests are related to the reduction of parenteral nutrition volume.
# Table 5 depicts the change in liver enzyme levels from baseline to week 24 in responders and non-responders. Responders are human patients with reduced parenteral nutrition, while non-responders are human patients without reduced parenteral nutrition. Human patients either received placebo or teduglutide at 0.05 mg/kg/day. Known biomarkers of liver function were monitored for 24 weeks. The liver biomarkers tested included ALP, ALT, AST, total bilirubin and GGTP.
# Table 6 depicts the change in liver enzyme levels (ALP, ALT, AST, total bilirubin and GGTP), as presented in Table 5, and stratifies them by treatment group (placebo versus teduglutide at 0.05 mg/kg/day) and responder status (responder versus non-responder).
structure (smiles),measurement,setting,value
CC[C@H](C)[C@H](NC(=O)[C@H](Cc1ccccc1)NC(=O)[C@H](CC(=O)O)NC(=O)[C@H](CCCNC(=N)N)NC(=O)[C@H](C)NC(=O)[C@H](C)NC(=O)[C@H](CC(C)C)NC(=O)[C@H](CC(N)=O)NC(=O)[C@H](CC(=O)O)NC(=O)[C@H](CC(C)C)NC(=O)[C@@H](NC(=O)[C@@H](NC(=O)[C@H](CC(N)=O)NC(=O)[C@H](CCSC)NC(=O)[C@H](CCC(=O)O)NC(=O)[C@H](CC(=O)O)NC(=O)[C@H](CO)NC(=O)[C@H](Cc1ccccc1)NC(=O)[C@H](CO)NC(=O)CNC(=O)[C@H](CC(=O)O)NC(=O)CNC(=O)[C@@H](N)Cc1c[nH]cn1)[C@@H](C)O)[C@@H](C)CC)C(=O)N[C@@H](CC(N)=O)C(=O)N[C@@H](Cc1c[nH]c2ccccc12)C(=O)N[C@@H](CC(C)C)C(=O)N[C@H](C(=O)N[C@@H](CCC(N)=O)C(=O)N[C@H](C(=O)N[C@@H](CCCCN)C(=O)N[C@H](C(=O)N[C@H](C(=O)N[C@@H](CC(=O)O)C(=O)O)[C@@H](C)O)[C@@H](C)CC)[C@@H](C)O)[C@@H](C)CC [teduglutide],relation of effect on liver function tests to reduction of parenteral nutrition (responders vs non-responders),baseline to week 24,the major part of the effect is not mediated through the reduction of parenteral nutrition
same,"ALKALINE PHOSPHATASE change from Baseline to Week 24, Mean","Non-responder, n=11",−13.82 U/L
same,"ALKALINE PHOSPHATASE change from Baseline to Week 24, Median","Non-responder, n=11",−7 U/L
same,"ALT change from Baseline to Week 24, Mean","Non-responder, n=11",−3.82 U/L
same,"ALT change from Baseline to Week 24, Median","Non-responder, n=11",−3 U/L
same,"AST change from Baseline to Week 24, Mean","Non-responder, n=11",−2.18 U/L
same,"AST change from Baseline to Week 24, Median","Non-responder, n=11",−2 U/L
same,"BILIRUBIN, TOTAL change from Baseline to Week 24, Mean","Non-responder, n=11",-2.43 µmol/L
same,"BILIRUBIN, TOTAL change from Baseline to Week 24, Median","Non-responder, n=11",-1.7 µmol/L
same,"GGTP change from Baseline to Week 24, Mean","Non-responder, n=11",−1.91 U/L
same,"GGTP change from Baseline to Week 24, Median","Non-responder, n=11",3 U/L
same,"ALKALINE PHOSPHATASE change from Baseline to Week 24, Mean","Responder, n=27",−35.52 U/L
same,"ALKALINE PHOSPHATASE change from Baseline to Week 24, Median","Responder, n=27",−34 U/L
same,"ALT change from Baseline to Week 24, Mean","Responder, n=27",−17.48 U/L
same,"ALT change from Baseline to Week 24, Median","Responder, n=27",−14 U/L
same,"AST change from Baseline to Week 24, Mean","Responder, n=27",−7.30 U/L
same,"AST change from Baseline to Week 24, Median","Responder, n=27",−7 U/L
same,"BILIRUBIN, TOTAL change from Baseline to Week 24, Mean","Responder, n=27",-4.19 µmol/L
same,"BILIRUBIN, TOTAL change from Baseline to Week 24, Median","Responder, n=27",-2.4 µmol/L
same,"GGTP change from Baseline to Week 24, Mean","Responder, n=27",−18.41 U/L
same,"GGTP change from Baseline to Week 24, Median","Responder, n=27",−10 U/L
same,"ALKALINE PHOSPHATASE change from Baseline to Week 24, Mean","Total, n=38",−29.24 U/L
same,"ALKALINE PHOSPHATASE change from Baseline to Week 24, Median","Total, n=38",−24.5 U/L
same,"ALT change from Baseline to Week 24, Mean","Total, n=38",−13.53 U/L
same,"ALT change from Baseline to Week 24, Median","Total, n=38",−7.5 U/L
same,"AST change from Baseline to Week 24, Mean","Total, n=38",−5.82 U/L
same,"AST change from Baseline to Week 24, Median","Total, n=38",−5 U/L
same,"BILIRUBIN, TOTAL change from Baseline to Week 24, Mean","Total, n=38",-3.68 µmol/L
same,"BILIRUBIN, TOTAL change from Baseline to Week 24, Median","Total, n=38",-2.35 µmol/L
same,"GGTP change from Baseline to Week 24, Mean","Total, n=38",−13.63 U/L
same,"GGTP change from Baseline to Week 24, Median","Total, n=38",−6 U/L
same,"ALKALINE PHOSPHATASE change from Baseline to Week 24, LS Means",by Treatment,−24.67 U/L
same,"ALT change from Baseline to Week 24, LS Means",by Treatment,−10.65 U/L
same,"AST change from Baseline to Week 24, LS Means",by Treatment,−4.74 U/L
same,"BILIRUBIN, TOTAL change from Baseline to Week 24, LS Means",by Treatment,-3.31 µmol/L
same,"GGTP change from Baseline to Week 24, LS Means",by Treatment,−10.16 U/L
